Measurements reported in PubChem BioAssay AID1845206 (Molecular Pharmacology Branch, DTP, NCI, 2023).
Values joined by “and” are separate entries in the source; they are usually repeats but may differ in a detail not shown here. Equal values may be shown once. Active and inactive are the calls of the source. Rule for the calls: active = viability on the fitted dose curve at most 10% of control; inactive = the rest.

System: NCI-H1618 multicellular tumor spheroid viability
Test: Anticancer human tumor NCI-H1618 cell line growth inhibition;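 note: spheroids exposed to agents for 7 days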
Conditions: for viability, T/C: stronger effect = lower value
From the text: Multicellular complex tumor spheroid response to DNA repair inhibitors in combination with DNA-damaging drugs
This study explores the anticancer activities of DNA-damaging drugs and inhibitors of DNA damage repair, both as single agents and in combinations. Complex tumor spheroids comprised of malignant cells, endothelial cells and mesenchymal stem cells served as an in vitro model for human solid tumors. This model system incorporates physiologically relevant features and patient-derived or established malignant cell lines with clinically relevant genetic alterations from many tumor types. Twenty-six patient-derived or established malignant cell lines were evaluated representing sarcoma, melanoma, small cell lung cancer (SCLC), non-small cell lung cancer (NSCLC), as well as bladder, ovarian and pancreatic cancers. The concentration ranges selected for each drug and investigational agent were based upon clinically achievable concentrations if the clinical Cmax of the agent was known.
Compounds. The drugs and compounds olaparib (NSC753686), talazoparib (NSC767125), berzosertib (NSC777718), elimusertib (NSC800525), nedisertib (NSC802822), VX-984 (NSC792969), AZD-1390 (NSC803789), temozolomide (NSC362856), topotecan (NSC609699), trabectedin (NSC813783), staurosporine (NSC755774), and gemcitabine (NSC613327) were obtained from the National Cancer Institute (NCI) Developmental Therapeutics Program Chemical Repository. The FDA-approved anticancer drug set is available from the Developmental Therapeutics Program at https://dtp.cancer.gov/organization/dscb/obtaining/available_plates.htm. […] The stock solutions were prepared in dimethyl sulfoxide (DMSO, Sigma-Aldrich, St. Louis, MO, cat. D2650) at 400-fold the tested concentration and stored at -70 degrees C. Prior to their use, the stock solutions were diluted in fresh medium and the final DMSO concentration in the assay was 0.25% (v/v). All drugs and investigational agents were tested over a range starting from a high concentration at or near the clinical Cmax and decreasing in half-log increments. If the clinical Cmax for an agent had not been determined, the highest concentration tested was 10 microM.
Cell Lines. The patient-derived cancer cell (PDC) lines: 156681-154-R-J1-PDC, 283228-195-R-J1-PDC, 287954-098-R-J1-PDC, 292921-168-R-J2-PDC, 349418-098-R-PDC, 425362-245-T-J1-PDC, 556581-035-R-J1-PDC, and BL0293-F563-PDC were received from the NCI Patient-Derived Models Repository (PDMR, https://pdmr.cancer.gov). The established cell lines HS-SY-2 (RRID:CVCL_8719), MPNST, and SYO-1 (RRID:CVCL_7146) were obtained from the Sloan Kettering Institute. The alveolar soft parts sarcoma cell line ASPS-1 (RRID:CVCL_S738) was established at the NCI and grown from internal seed stocks. The following established cell lines were purchased from the American Type Culture Collection (ATCC, Manassas, VA): G-401 (ATCC, cat. CRL-1441, RRID:CVCL_0270), SW982 (ATCC, cat. HTB-93, RRID:CVCL_1734), VA-ES-BJ (ATCC, cat. CRL-2138, RRID:CVCL_1785), NCI-H719 (ATCC, cat. CRL-5837, RRID:CVCL_1582), NCI-H196 (ATCC, cat. CRL-5823, RRID:CVCL_1509), NCI-H841 (ATCC, cat. CRL-5845, RRID:CVCL_1595), NCI-H1618 (ATCC, cat. CRL-5879, RRID:CVCL_1480), NCI-H1876 (ATCC, cat. CRL-5902, RRID:CVCL_1503), DMS 114 (ATCC, cat. CRL-2066; RRID:CVCL_1174), NCI-H211 (ATCC, cat. CRL-5824; RRID:CVCL_1529), and SW 1271 (ATCC, cat. CRL-2177, RRID:CVCL_1716). The small cell lung cancer cell line COR-L88 was purchased from Sigma-Aldrich (cat. 92031917-1VL, RRID:CVCL_1141). The non-small cell lung cancer cell lines NCI-H226 (RRID:CVCL_1544) and NCI-H322M (RRID:CVCL_1557) were established at the NCI and grown from internal seed stocks. Pooled donor human umbilical vein endothelial cells (HUVEC, Lonza, cat. CC-2519) and human mesenchymal stem cells (hMSC, Lonza, cat. PT-2501) were purchased from Lonza (Walkersville, MD).
Cell Culture. All cells were maintained in an incubator at 37 degrees C and 5% CO2 with 95% humidity. […]

With `Cc1cc(C)c(CNC(=O)c2cc(-c3ccc(CN4CCOCC4)cc3)cc3c2cnn3C2CCCC2)c(=O)[nH]1` + Cn1nnc2c(C(N)=O)ncn2c1=O the IC50 (curve of first compound, second compound 1 µM) was > 10 µM, the IC50 (curve of first compound, second compound 3.16 µM) was < 0.0316 µM and the IC50 (curve of first compound, second compound 10 µM) was < 0.0316 µM. The IC50 (curve of first compound, second compound 31.6 µM) was < 0.0316 µM, the IC50 (curve of first compound, second compound 100 µM) was < 0.0316 µM and the viability, T/C (second compound 1 µM, first compound 0.0316 µM) was 88.9%. The viability, T/C (second compound 1 µM, first compound 0.1 µM) was 82.9%, the viability, T/C (second compound 1 µM, first compound 0.316 µM) was 89.8% and the outcome (second compound 1 µM, first compound 1 µM) was “inactive”. For the same molecule, the viability, T/C (second compound 1 µM, first compound 3.16 µM) was 82.3%, the viability, T/C (second compound 1 µM, first compound 10 µM) was 78.8% and the viability, T/C (second compound 3.16 µM, first compound 0.0316 µM) was 24.3%. The viability, T/C (second compound 3.16 µM, first compound 0.1 µM) was 13.1%, the viability, T/C (second compound 3.16 µM, first compound 0.316 µM) was 16.6% and the viability, T/C (second compound 3.16 µM, first compound 1 µM) was 22%. It also gave a viability, T/C (second compound 3.16 µM, first compound 3.16 µM) of 14.7%, a viability, T/C (second compound 3.16 µM, first compound 10 µM) of 19.3% and a viability, T/C (second compound 10 µM, first compound 0.0316 µM) of 4.25%. The viability, T/C (second compound 10 µM, first compound 0.1 µM) was 19.8%, the viability, T/C (second compound 10 µM, first compound 0.316 µM) was 10.5% and the viability, T/C (second compound 10 µM, first compound 1 µM) was 3.64%. For the same molecule, the viability, T/C (second compound 10 µM, first compound 3.16 µM) was 5.17%, the viability, T/C (second compound 10 µM, first compound 10 µM) was 4.06% and the viability, T/C (second compound 31.6 µM, first compound 0.0316 µM) was 18.2%. It also gave a viability, T/C (second compound 31.6 µM, first compound 0.1 µM) of 20.3%, a viability, T/C (second compound 31.6 µM, first compound 0.316 µM) of 20.4% and a viability, T/C (second compound 31.6 µM, first compound 1 µM) of 5.16%. The viability, T/C (second compound 31.6 µM, first compound 3.16 µM) was 13.7%, the viability, T/C (second compound 31.6 µM, first compound 10 µM) was 12% and the viability, T/C (second compound 100 µM, first compound 0.0316 µM) was 34.9%. It also gave a viability, T/C (second compound 100 µM, first compound 0.1 µM) of 63.6%, a viability, T/C (second compound 100 µM, first compound 0.316 µM) of 52.6% and a viability, T/C (second compound 100 µM, first compound 1 µM) of 46.8%. The viability, T/C (second compound 100 µM, first compound 3.16 µM) was 66.2% and the viability, T/C (second compound 100 µM, first compound 10 µM) was 44.2%.

In the case of `CNCc1ccc(-c2cc(-c3nc(-c4ccc(S(=O)(=O)C(C)C)cc4)cnc3N)on2)cc1`, the viability, T/C (compound 0.00949 µM) is reported as 97.2% and 99.1% and 104%, the viability, T/C (compound 0.03 µM) is reported as 96.2% and 99.4% and 112% and the viability, T/C (compound 0.0949 µM) is reported as 25.7% and 95.3% and 102%. For the same molecule, the viability, T/C (compound 0.3 µM) was 25.8% and 85.3% and 90%, the viability, T/C (compound 0.949 µM) was 18.8% and 21.5% and 11.7% and the viability, T/C (compound 3 µM) was 20.3% and 0.47% and 4.41%. For the same molecule, the IC50 (curve of compound) was 0.0638 µM and 0.567 µM and 0.54 µM.

In the case of `COc1cc(C)[nH]c(=O)c1CN1CCc2c(Cl)cc(C(OC)C3COC3)c(Cl)c2C1=O` (stereo not drawn), the viability, T/C (compound 0.0316 µM) is reported as 83.9% and 102% and 58.1%, the outcome (compound 0.1 µM) is reported as “inactive” and the viability, T/C (compound 0.1 µM) is reported as 77.3% and 49.4%. The outcome (compound 0.316 µM) was “inactive”, the viability, T/C (compound 0.316 µM) was 67.3% and 73.7% and the viability, T/C (compound 1 µM) was 76.1% and 83% and 91.4%. For the same molecule, the viability, T/C (compound 3.16 µM) was 69% and 82.6% and 93.8%, the viability, T/C (compound 10 µM) was 65.9% and 85.6% and 65.3% and the IC50 (curve of compound) was > 10 µM.

With `CC[C@@]1(O)C(=O)OCc2c1cc1n(c2=O)Cc2cc3c(CN(C)C)c(O)ccc3nc2-1` the viability, T/C (compound 0.3 µM) was 1.94% [middle of 9 runs] and the IC50 (compound alone, run of 11/07/2019) was 9.37 nM [middle of 5 runs].

`CNCc1ccc(-c2cc(-c3nc(-c4ccc(S(=O)(=O)C(C)C)cc4)cnc3N)on2)cc1` + CC[C@@]1(O)C(=O)OCc2c1cc1n(c2=O)Cc2cc3c(CN(C)C)c(O)ccc3nc2-1 was tested, and the IC50 (curve of first compound, second compound 0.003 µM) was 0.187 µM, the IC50 (curve of first compound, second compound 0.00949 µM) was < 0.00949 µM and the IC50 (curve of first compound, second compound 0.03 µM) was < 0.00949 µM. The IC50 (curve of first compound, second compound 0.0949 µM) was < 0.00949 µM, the IC50 (curve of first compound, second compound 0.3 µM) was < 0.00949 µM and the viability, T/C (second compound 0.003 µM, first compound 0.00949 µM) was 95.1%. The viability, T/C (second compound 0.003 µM, first compound 0.03 µM) was 94%, the viability, T/C (second compound 0.003 µM, first compound 0.0949 µM) was 61.7% and the viability, T/C (second compound 0.003 µM, first compound 0.3 µM) was 44.8%. For the same molecule, the viability, T/C (second compound 0.003 µM, first compound 0.949 µM) was 1.59%, the viability, T/C (second compound 0.003 µM, first compound 3 µM) was 0.23% and the viability, T/C (second compound 0.00949 µM, first compound 0.00949 µM) was 20.6%. The viability, T/C (second compound 0.00949 µM, first compound 0.03 µM) was 77.9%, the viability, T/C (second compound 0.00949 µM, first compound 0.0949 µM) was 34.5% and the viability, T/C (second compound 0.00949 µM, first compound 0.3 µM) was 1.73%. The viability, T/C (second compound 0.00949 µM, first compound 0.949 µM) was 0.75%, the viability, T/C (second compound 0.00949 µM, first compound 3 µM) was 0.62% and the viability, T/C (second compound 0.03 µM, first compound 0.00949 µM) was 1.33%. For the same molecule, the viability, T/C (second compound 0.03 µM, first compound 0.03 µM) was 15.5%, the viability, T/C (second compound 0.03 µM, first compound 0.0949 µM) was 1.54% and the viability, T/C (second compound 0.03 µM, first compound 0.3 µM) was 1.41%. For the same molecule, the viability, T/C (second compound 0.03 µM, first compound 0.949 µM) was 0.72%, the viability, T/C (second compound 0.03 µM, first compound 3 µM) was 0.23% and the viability, T/C (second compound 0.0949 µM, first compound 0.00949 µM) was 1.38%. The viability, T/C (second compound 0.0949 µM, first compound 0.03 µM) was 14%, the viability, T/C (second compound 0.0949 µM, first compound 0.0949 µM) was 1.35% and the viability, T/C (second compound 0.0949 µM, first compound 0.3 µM) was 1.36%. It also gave a viability, T/C (second compound 0.0949 µM, first compound 0.949 µM) of 0.81%, a viability, T/C (second compound 0.0949 µM, first compound 3 µM) of 0.45% and a viability, T/C (second compound 0.3 µM, first compound 0.00949 µM) of 1.25%. The viability, T/C (second compound 0.3 µM, first compound 0.03 µM) was 1.26%, the viability, T/C (second compound 0.3 µM, first compound 0.0949 µM) was 1.42% and the viability, T/C (second compound 0.3 µM, first compound 0.3 µM) was 1.51%. For the same molecule, the viability, T/C (second compound 0.3 µM, first compound 0.949 µM) was 17.5% and the viability, T/C (second compound 0.3 µM, first compound 3 µM) was 0.43%.
